US9993459B2, “Selective HDAC6 inhibitors and uses thereof” (Universiteit Gent, priority 2015, dated 2018)

Key:
[1] = tested on: glucocorticoid receptor, GR; experiment: GRE-dependent luciferase reporter p(GRE)2-50-luc in A549 cells; format: cell-based; settings: for DEX-activated GR-driven gene expression (transcriptional activity of GR): A549, 1 μM or 10 μM, 1 h pre-incubation then DEX 1 μM 5 h
HDAC3 = HDAC3 (Homo sapiens, UniProt O15379); experiment: In vitro HDAC isozyme selectivity screen: HDAC3; format: biochemical
HDAC3, sequence (O15379 whole entry, species assumed): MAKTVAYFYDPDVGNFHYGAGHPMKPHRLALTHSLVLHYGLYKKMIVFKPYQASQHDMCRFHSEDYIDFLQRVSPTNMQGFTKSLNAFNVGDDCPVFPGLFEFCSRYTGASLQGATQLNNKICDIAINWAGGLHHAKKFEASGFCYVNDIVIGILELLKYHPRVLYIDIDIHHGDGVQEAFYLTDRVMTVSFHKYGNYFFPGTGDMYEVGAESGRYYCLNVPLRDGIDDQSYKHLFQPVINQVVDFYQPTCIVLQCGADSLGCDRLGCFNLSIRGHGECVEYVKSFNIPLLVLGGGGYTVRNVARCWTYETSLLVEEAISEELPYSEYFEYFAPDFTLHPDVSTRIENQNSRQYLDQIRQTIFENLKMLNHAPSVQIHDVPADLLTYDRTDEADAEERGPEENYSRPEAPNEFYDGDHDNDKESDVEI
HDAC3, sequence (Q9Y618 395-489 partner limits assumed, species assumed): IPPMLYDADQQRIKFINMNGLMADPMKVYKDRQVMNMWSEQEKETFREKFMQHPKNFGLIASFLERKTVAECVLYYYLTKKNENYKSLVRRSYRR

AP-1 = experiment: AP1-dependent luciferase reporter pCollagenase-luc in PMA-treated A549 cells; format: cell-based; settings: A549, 10 μM
Method: (§1) FIG. 2: A549 cells with the stably integrated recombinant reporter gene p(GRE)2-50-luc (A) were pre-incubated with respective solvents, the selective Glucocorticoid Receptor modulator CpdA (10 μM), 7a, (1 μM or 10 μM), 7b (1 μM or 10 μM), 13a (1 μM or 10 μM) for 1 h after which the synthetic glucocorticoid dexamethasone (DEX,1 μM) was added, where indicated, for 5 h. A549 cells with the stably integrated recombinant reporter gene p(IL6kB)350hu.IL6P-luc (B) or Collagenase-luc (C) were pre-incubated with respective solvents, DEX (1 μM), CpdA (10 μM), 7a, (1 μM or 10 μM), 7b (1 μM or 10 μM), 13a (1 μM or 10 μM) for 1 h after which TNF (2000 units/ml) or PMA (20 nM) were added, where indicated, for 5 h. Cell lysates were assayed for luciferase activities. Promoter activities are expressed as relative induction factor calculated as percentage of maximal DEX (A), TNF (B) or PMA (C) responses. […] Assays were performed in triplicate, and results are averages of at least three independent experiments and shown ±S.D. ****p<0.0001; ***p<0.001; **p<0.01; *p<0.05. Statistical significance was determined on the averaged results, and analysis performed using one-way ANOVA tests followed by a Tukey multiple comparison post test. […]

NF-κβ = experiment: NF-κβ-dependent luciferase reporter p(IL6kB)350hu.IL6P-luc in TNF-activated A549 cells; format: cell-based; settings: TNF-activated A549, 1 μM or 10 μM
Method: as §1

Row | effect at 100 μM, HDAC3 (HDAC3; 100 μM) | IC50 (HDAC3; Table 2) | SMILES | DEX-activated GR-driven gene expression (transcriptional activity of GR) [1] | AP1-dependent promoter activity as compared to solvent control (DMSO) (AP-1) | block of the activity of NF-κβ (NF-κβ) | enhancement of GR-driven gene expression ([1]; A549, 1 μM, with DEX 1 μM) | melting point
1 | less than 50% |  | O=C(NO)c1ccc(NCc2csc3ccc(Br)cc23)cc1 [Compound 7b, 5-bromo-3-[(4-hydroxycarbamoylphenyl)aminomethyl]-benzothiophene] | leaves the transcriptional activity of GR unhampered | clearly induced the AP1-dependent promoter activity | not able to block the activity of NF-κβ |  | 
2 |  |  | O=C(NO)c1ccc(NCc2csc3ccccc23)cc1 [Compound 7a, 3-[(4-hydroxycarbamoylphenyl)aminomethyl]benzothiophene] | leaves the transcriptional activity of GR unhampered |  | not able to block the activity of NF-κβ | able to significantly enhance GR-driven gene expression | 191 °C
3 |  | 6.6 µM | O=C(NO)c1ccc(NCc2csc3cc(Br)ccc23)cc1 [Compound 13a, 6-bromo-3-[(4-hydroxycarbamoylphenyl)aminomethyl]-benzothiophene] |  |  |  |  | 179.5 °C
